Assay results taken from US6759236B1, “Methods to enhance and confine expression of genes” (Research Development Foundation, priority 1998, dated 2004).

What was measured:
[1] = system: H358 lung carcinoma cell line; assay: Heat inducible, tetracycline feed-forward amplification of p53 expression (p53 immunostaining); assay type: cell-based; conditions: 0.1 μg/ml added 6 hours after heating (45° C., 20 min); reached in 10 hours; cells cotransfected with ptet-splice p53 wt and HSP-tetp-TET-ON
Experimental: Six hours after heat shock, transfected cells were treated with different doses of doxycycline. At various time points after the addition of doxycycline, the cells were stained with a p53 antibody. For each point, the digital images of fifty immunostained cells were captured using a Nikon microscope. […] The plasmid “HSP-tetp-TET-ON” was constructed by replacing the CMV promoter in ptet-on (Clontech) with 300 bp of the human heat shock protein promoter and the tetp promoter. H358, a non-small cell lung carcinoma cell line with a homozygous deletion of p53, was grown in RPMI+10% fetal calf serum. 10^7 exponentially growing cells were cotransfected with 50 μg of “ptet-splice p53 wt” and 10 μg of “HSP-tetp-TET-ON” by electroporation using a BRL cell-Porator at 1180 μF and 240 V in 0.8 ml RPMI+6 mM glucose. Transfected cells were plated out at 25% confluence for 36 hours and then half of them were heat-shocked at 45° C. for twenty minutes. Six hours after heat shock, cells were treated with different doses of doxycycline. […] The amount of protein expressed in each cell is proportional to the intensity of staining which was expressed as I=1/T, where T is a measure of the transmitted light/unit area.

[2] = cited from earlier work

| Compound | amplification of p53 [1] | in vivo half-life ([2]; in vivo) [h] | level at the end of 24 hours ([2]; end of 24 hours) | time at which peak plasma concentration is reached ([2]; humans, single oral dose) [h] | fraction removed via the kidney ([2]; humans) | fraction never absorbed and excreted in the active form ([2]; in vivo) |
| --- | --- | --- | --- | --- | --- | --- |
| C[C@H]1c2cccc(O)c2C(=O)C2=C(O)[C@]3(O)C(=O)C(C(N)=O)=C(O)[C@@H](N(C)C)[C@@H]3[C@@H](O)[C@@H]21 [doxycycline] | more than 12 fold | 18 |  |  |  |  |
| CN(C)[C@@H]1C(O)=C(C(N)=O)C(=O)[C@@]2(O)C(O)=C3C(=O)c4c(O)cccc4[C@@](C)(O)[C@H]3[C@H](O)[C@@H]12 [oxytetracycline] |  | 9 | < 25 % of input | 2 to 4 | 10-35% | 10-30% |
